From ChEMBL document CHEMBL3507680, “University of Dundee, Gates Library screen for HepG2 cell viability” come the findings set out here.

The series in a line: Human HepG2 cell viability assay in 384 well format. The format is toxicity, cell-based. Also on record: dose 125 nL, time 70.5 hour; concentration not given beside the values. The note with it: HepG2 cells, read-out: Inhibition.
Turning to `CC(=O)c1cccc(NC(=O)CN2CCCCC2C)c1` (centres undefined), the cytotoxicity at 70.5 h was -2.56%.
As for `CC1(Cc2ccc3c(c2)OCO3)CCCN(S(=O)(=O)N2CCCC2)C1` (centres undefined), the cytotoxicity at 70.5 h is 0.304%.
Next, `COCC(=O)N1CCC(C(=O)N(C)C(C)c2ccon2)CC1` (centres undefined): -2.4%; `Cn1nccc1CCC(=O)N1CCC(c2cnccn2)CC1`: -13.1%.
Next, `CC1CCN(c2ncc3c(n2)CN(C2CCS(=O)(=O)C2)C3=O)CC1` (centres undefined): 29%; `Cn1ncc2c1C(COCC1CC1)CN(C(=O)Cc1ccsc1)C2` (centres undefined): -2.83%.
Next, `Cc1c(C(C)NC(=O)N2CCN(C3CCCC3)CC2)cnn1C` (centres undefined): 54.3%.
As for `CC(=O)N1C[C@@H]2CC[C@H](C1)N(C(=O)CCc1n[nH]c3c1CCCC3)C2`, the cytotoxicity at 70.5 h turned out to be 1.78%.
Next, `CCc1nc(CN(C(C)=O)C2CCN(Cc3cnc(C)cn3)C2)no1` (centres undefined): 23.6%; `Cc1cnc(-c2nc(C3CCN(C(=O)Cc4ccsc4)CC3)no2)cn1`: 2.59%; `NC(=O)CN1CCCN(C(=O)Cc2cccc(C(F)(F)F)c2)CC1`: 4.42%.
On to `COCC(=O)NC[C@]12COC[C@H]1CN(c1ncc(F)cn1)C2`, for which the cytotoxicity at 70.5 h is -7.55%.
Next, `CCOC[C@@H]1CC[C@H]2[C@H](CCN2C(=O)c2ccncc2F)O1`: -1.37%; `CCS(=O)(=O)N1CCC2(CC1)CC[C@@]1(C(=O)N(C)C)CN(C)C[C@@H]21`: -15.2%.
Next, `COc1ccc(N2CCN(C[C@@H](C)CO)CC2=O)cc1`: -4.04%; `CCOC1CC2(CCN(C(=O)COC)CC2)c2cc(C)ccc21` (centres undefined): -9.53%; `Cc1cc(C(=O)N2CCC3(CCC(=O)N(CC(N)=O)C3)CC2)ccc1O`: -14%.
Next, `O=C(NCC1CC1)Nc1cccc(N2CCN(CC3CC3)CC2)c1`: -0.269%; `CCc1n[nH]c(C2CN(CCc3cccs3)CCO2)n1` (centres undefined): 22.1%; `CC1CCCCN1C(=O)c1nc2c(n1C(C)C)CCN(C)C2` (centres undefined): -14%.
As for `Cc1ccccc1Cc1nc(CSc2nnc(N)n2C2CC2)no1`, the cytotoxicity at 70.5 h was -12.1%.
Next, `O=C(NCc1cc(=O)n2c(n1)CN(CC1CC1)CCC2)c1ccsc1`: 17.3%; `Cc1cnn(CC(C)NCc2ccccc2OCc2cccnc2)c1` (centres undefined): -7.82%; `Cc1cnn(CC2CN(c3ncnc4c3CCC4)CCO2)c1` (centres undefined): -1.52%.
Next, `CCOc1ccc(C(=O)NS(=O)(=O)c2cncc(Br)c2)cc1OC`: 18.9%.
As to `COc1ccc(CN2CC[C@H](NC(C)=O)[C@@H](O)CC2)c(OC)c1`, the cytotoxicity at 70.5 h was -17.2%.
Next, `Cc1nc2c(c(NCC(O)C(F)(F)F)n1)CCNCC2` (centres undefined): 11.7%; `COc1cccc(OCC2CCCN(C3CCN(C(C)=O)CC3)C2)c1` (centres undefined): -4.72%.
Next, `O=C(NCCc1ccccc1)C1CCC(Cn2cnnn2)CC1` (centres undefined): -2.34%.
Next, `O=C(Nc1ccc2c(c1)OC1(CCCC1)O2)c1ccc(=O)[nH]n1`: -6.98%.
As to `OC(CN1CCN(Cc2nnc(C3CC3)o2)CC1)c1ccccc1` (centres undefined), the cytotoxicity at 70.5 h is -20.3%.
`Cc1ccc(-c2nc(C3CCN(C(=O)c4cnn(C)c4)CC3)no2)cn1`: the cytotoxicity at 70.5 h was 24.5%.
Next, `CNc1nc(C(=O)N2CCN(c3cc(C)nc(C)c3)CC2)cs1`: -9.69%.
Next, `CCOC[C@@H]1CC[C@H]2[C@H](CCN2Cc2c(C)noc2C)O1`: -0.0549%.
On to `CC(C)c1nc(CN2CCN(C(C)c3nc(C4CC4)no3)CC2)no1` (centres undefined), for which the cytotoxicity at 70.5 h was -4.05%.
Next, `CCc1ccsc1C(=O)N1CCCN(Cc2cscn2)CC1`: 3.8%; `CC(C)OCc1nn(C)c2c1CCN(CC1CC1)C2`: -2.45%; `CC(C)=CCC1(C(=O)O)CCCN(c2ccnc(C)n2)C1` (centres undefined): -3.8%.
Next, `c1ccc(-c2nnc(CNCCn3cccn3)o2)cc1`: -1.94%; `Cc1cc(CSC2CCCN(c3cnn(C)c3)C2=O)no1` (centres undefined): -3.62%.
Next, `Fc1cnc(N2CCCn3c(nnc3Cn3cccn3)C2)nc1`: 12.7%; `CC1c2ncc(COCC3CCOCC3)n2CCN1S(C)(=O)=O` (centres undefined): -1.95%.
Regarding `COC(=O)CC1c2cccnc2C(=O)N1Cc1ccccc1` (centres undefined), the cytotoxicity at 70.5 h is -3.32%.
Turning to `CO[C@@H]1CCN(C(=O)Cc2ccsc2)[C@H]1Cc1cccnc1`, the cytotoxicity at 70.5 h was -5.91%.
Next, `COCCC(=O)N1CCn2c(COCC3CC3)cnc2C1C` (centres undefined): -0.0494%; `O=C(NCCCN1CCOCC1)c1ccn(-c2ccc3ccccn23)n1`: 23.5%; `O=C(O)[C@@]12CN(c3cnccn3)C[C@@H]1CN(C1CCCC1)C2`: -7.64%.
Next, `Cc1cc(Cn2c(=O)c3c(C(F)(F)F)cc(C)nc3n2C)on1`: -3.01%.
Next, `Cc1cc(Br)c2c(c1)C1(CC(=O)Nc3c1cnn3C(C)C)C(=O)N2` (centres undefined): -24.3%; `CNS(=O)(=O)c1ccc(CNC(=O)N(C)CC(O)COC)cc1` (centres undefined): -74.7%.
With `CCN1CCN(C2CCN(Cc3nnc(C(C)C)o3)CC2)C1=O`, the cytotoxicity at 70.5 h was -7.93%.
Next, `O=C(CCOc1ccc(F)cc1)N1CCCC1Cn1cccn1` (centres undefined): -2.78%; `CN(C)[C@H]1CCCCN(C(=O)c2cccc(-c3cccc(F)c3)c2)C1`: -4.14%; `CC(C)(C)c1nc(CC(=O)NC2CCN(C3CC3)C2)cs1` (centres undefined): -6.08%.
In the case of `CC(C)(C)CC1CCCN1Cc1nc(-c2ccco2)no1` (centres undefined), the cytotoxicity at 70.5 h came out at 18%.
Next, `Cn1cc(CCNC(=O)NC2CCN(Cc3ccccn3)CC2)cn1`: 31.9%; `COc1cccc(-n2nnc(C(=O)N3CCN(C)CC3C)c2C)c1` (centres undefined): 56.4%.
Next, `CCn1cc(NC(=O)C2CCN(CCOC(C)C)CC2)cn1`: -1.36%; `CC(=O)N[C@H]1CN(S(=O)(=O)N(C)Cc2ccccc2)C[C@@H]1C1CC1`: -2.36%.
Regarding `O=C(NCc1nnc2ccccn12)N1CCOC(c2cccs2)C1` (centres undefined), the cytotoxicity at 70.5 h was -8.39%.
Next, `Cc1ccc(C(=O)N2CCN3C[C@H](Oc4cncnc4)C[C@H]3C2)cn1`: -0.158%.
On to `CC(C)(CO)CCCNC(=O)NC1(c2ccccc2F)CC1`, for which the cytotoxicity at 70.5 h came to 3.5%.
Next, `Cc1noc([C@]23COC[C@H]2CN(S(C)(=O)=O)C3)n1`: -1.56%.
In the case of `COC(=O)c1ccc(Cn2nc(C)cc2C)cc1`, the cytotoxicity at 70.5 h was 12.9%.
Next, `Cc1nn(C)c(N2CCCN(C)CC2)c1CNC(=O)CC(C)(C)C`: 3.8%.
Next, `CCc1nc(CN(C)C(=O)c2ccc(OCCCOC)nc2)cs1`: -7.45%.
Next, `CCNc1ncc(CN2C[C@@H](CN3CCC(CO)CC3)[C@@H](CO)C2)cn1`: -2.73%.
Take `N[C@H]1CCCN(S(=O)(=O)c2ccc(C(=O)NCC(F)F)cc2)C1`: the cytotoxicity at 70.5 h was 25.2%.
With `O=C(c1cnccn1)N(CCO)Cc1cc(Br)ccc1F`, the cytotoxicity at 70.5 h is -5.51%.
Next, `COc1cc(CN(Cc2ccccn2)CC(C)C)cc2c1OCO2`: -0.968%; `CCc1nc2c(c(NC3CC3)n1)CCN(C(=O)Cc1nonc1C)CC2`: -8.76%.
Next, `Cc1ncc(CN(Cc2ccccn2)Cc2ccccc2Cl)n1C`: 11.6%; `CNC(=O)c1nc(CC(=O)Nc2cccc(C(F)(F)F)c2)no1`: 22.3%; `CCCn1nc2c(cc1=O)CN(Cc1c(C)noc1C)CC2`: -6.66%.
Next, `CCC(=O)NCc1ccccc1Cn1ccnc1`: -2.6%; `Cc1cnc(CN2CCOC(Cn3nc(C)cc3C)C2)cn1` (centres undefined): 13.7%; `COCc1nn(C(C)C)c2c1CCN(Cc1nccs1)C2`: 12.2%.
For `O=S(=O)(C1CC1)N1Cc2[nH]nc(COCC3CC3)c2C1`, the cytotoxicity at 70.5 h was -6.81%.
Turning to `c1cc(-c2cscn2)cc(N2CCC(NCCc3cccs3)CC2)c1`, the cytotoxicity at 70.5 h came to 0.55%.
Next, `COCC1CC2(CCNCC2)CN1c1ncccn1` (centres undefined): 2.77%.
Next, `Cc1c(CN2CCCC2(C)C(=O)N2CCOCC2)cnn1C` (centres undefined): -7.03%; `O=C(NC1=NCCCN1c1ccc(Cl)cc1)c1cccc(Cl)c1`: 9.24%; `c1cc(CN2CCN(Cc3ccon3)C3(CCCCC3)C2)no1`: 4.47%.
Next, `O=C(CC1CCCCC1)N1CCOCC1CO` (centres undefined): -14.9%; `Cc1nc2cc(=O)[nH]n2c(C)c1CC(=O)Nc1cnn(C)c1`: 0.718%; `CC1=C(CCN2CC[C@@H](N3CCC(O)CC3)[C@H](O)C2)C(C)(C)CCC1`: -5.02%.
As to `CN(CCc1nc2ccccc2c(=O)[nH]1)CCC(F)(F)F`, the cytotoxicity at 70.5 h was -6.6%.
In the case of `COc1ccccc1C1CCN(C(=O)c2ncccc2OC(C)C)C1` (centres undefined), the cytotoxicity at 70.5 h is -1.72%.
With `COCCn1c(CN2CCCO2)cnc1S(=O)(=O)CC1CCCCC1`, the cytotoxicity at 70.5 h is -2.9%.
Consider `CCc1noc(CN(C)C(=O)COc2cc(Cl)cc(Cl)c2)n1`, for which the cytotoxicity at 70.5 h worked out at 1.61%.
For `COc1nc(C)c(C(=O)N(C)Cc2nc(-c3ccccn3)no2)s1`, the cytotoxicity at 70.5 h was determined as 5.05%.
`O=C(c1ccco1)N1CCCn2cnc(COCC3CC3)c2C1`: the cytotoxicity at 70.5 h is -7.39%.
Next, `O=c1[nH]c(NC2CCCC2)nc2nccc(-c3ccsc3)c12`: -4.5%.
Next, `c1cnc(N2CCC3(CC2)CN(CC2CC2)c2ccccc23)nc1`: 12.1%; `OCC(O)CN1CCc2onc(-c3ccc(C(F)(F)F)cc3)c2C1` (centres undefined): -8.17%.
Next, `CCC1CN(C(=O)NCCOc2ccc3c(c2)OCO3)CCO1` (centres undefined): -19.8%; `O=S(=O)(Cc1ccc(F)cc1)N1CCN(CC(O)C2CC2)CC1` (centres undefined): -1.75%.
As for `CNC1CCN(C2CCN(c3ccc(-c4ccco4)cc3)CC2)CC1`, the cytotoxicity at 70.5 h was determined as 8.23%.
Next, `Cc1cnn(CCNCc2cccnc2)c1`: -1.13%.
